Measured values as given in patent publication US20180312473A1, “PHENAZINE DERIVATIVES AS ANTIMICROBIAL AGENTS” (priority 2015, published 2018).
≈ marks a conversion by molar mass, not a printed value. Where two headings read alike, the source gives them in different places. Marks after values point to notes of the source that are not given here.

How the values were obtained:
[1] = test system: MRSA-2 (methicillin-resistant Staphylococcus aureus clinical isolate); assay: MIC assay (broth microdilution, CLSI); assay type: cell-based; conditions: Staphylococcus aureus, MRSA, read-out: MIC, MRSA-2
[2] = test system: MRSA-1 (methicillin-resistant Staphylococcus aureus clinical isolate); assay: MIC assay (broth microdilution, CLSI); assay type: cell-based; conditions: Staphylococcus aureus, MRSA, Table 2A; read-out: MIC, MRSA-1
[3] = test system: Staphylococcus epidermidis (ATCC 12228); assay: MIC assay (broth microdilution, CLSI); assay type: cell-based; conditions: Staphylococcus epidermidis, ATCC12228
[4] = test system: Staphylococcus epidermidis (ATCC 35984), MRSE; assay: MIC assay (broth microdilution, CLSI); assay type: cell-based; conditions: for MIC: Staphylococcus epidermidis
[5] = test system: Enterococcus faecium (ATCC 700221), VRE; assay: MIC assay (broth microdilution, CLSI); assay type: cell-based
in vitro = assay type: cell-based; conditions: human
Method: (§1) The cytotoxicities of select compounds of the invention against HeLa cells were determined. HeLa cytotoxicity was assessed using the LDH release assay described by CYTOTOX96 (Promega G1780). HeLa cells were grown in Dulbecco's Modified Eagle Medium (DMEM; Gibco) supplemented with 10% Fetal Bovine Serum (FBS) at 37° C. with 5% CO2. […] Triton X-100 (at 2% v/v) was used as the positive control for maximum lactate dehydrogenate (LDH) activity in this assay (e.g., complete cell death), while “medium only” lanes served as negative control lanes (e.g., no cell death). DMSO was used as the vehicle control. […] Finally, Stop Solution (50 μL) was added to the incubating plates, and the absorbance was measured at 490 nm.
(§2) HeLa cytotoxicity was assessed using the LDH release assay described by CYTOTOX96 (Promega G1780). HeLa cells were grown in Dulbecco's Modified Eagle Medium (DMEM; Gibco) supplemented with 10% Fetal Bovine Serum (FBS) at 37° C. with 5% CO2. […] Triton X-100 (at 2% v/v) was used as the positive control for maximum lactate dehydrogenate (LDH) activity in this assay (e.g., complete cell death), while “medium only” lanes served as negative control lanes (e.g., no cell death). DMSO was used as our vehicle control. […] Finally, Stop Solution (50 μL) was added to the incubating plates and the absorbance was measured at 490 nm. Results are from three independent experiments (FIG. 19)

HeLa cells = assay: in vitro; assay type: cell-based; conditions: human, 24 h
Method: as §1, §2

human red blood cells = assay: Hemolysis assay with red blood cells; conditions: human, 1 h, 200 μM, pH 7.2
Method: The hemolysis activities of select compounds of the invention were determined. […] The washing was repeated three times with the buffer. In 96-well plate, test compounds were added to the buffer from DMSO stocks. […] The plate was then incubated for 1 hour at 37° C. After incubation, the plate was centrifuged for 5 minutes at 3,500 rpm. Then 80 μL of the supernatant was transferred to another 96-well plate, and the optical density (OD) was read at 405 nm. DMSO served as the negative control (0% hemolysis), while Triton X served as the positive control (100% hemolysis). The percent of hemolysis was calculated as (OD405 of the compound−OD405 of DMSO)/(OD405 of Triton X−OD405 of the buffer).
The washing was repeated three times with the buffer. In 96-well plate, test compounds were added to the buffer from DMSO stocks. […] The plate was then incubated for 1 hour at 37° C. After incubation, the plate was centrifuged for 5 minutes at 3,500 rpm. Then 80 μL of the supernatant was transferred to another 96-well plate and the optical density (OD) was read at 405 nm. DMSO served as our negative control (0% hemolysis) while Triton X served as our positive control (100% hemolysis). The percent of hemolysis was calculated as (OD405 of the test compound−OD405 DMSO)/(OD405 Triton X−OD405 buffer) from three independent experiments.

[6] = test system: MRSA-2 planktonic cells and biofilms; assay: Calgary Biofilm Device (CBD) assay, MBC/MBEC; assay type: cell-based, Staphylococcus aureus; conditions: Staphylococcus aureus, MRSA
[7] = test system: MRSE (S. epidermidis ATCC 35984) planktonic cells and biofilms; assay: Calgary Biofilm Device (CBD) assay, MBC/MBEC; assay type: cell-based, Staphylococcus epidermidis; conditions: for MBC: Staphylococcus epidermidis
MRSA-2 = assay: MIC assay with Tiron or metal(II) cation co-treatment; assay type: cell-based, Staphylococcus aureus; conditions: Staphylococcus aureus
S. epidermidis 12228 = assay: as above; assay type: cell-based, Staphylococcus epidermidis; conditions: Staphylococcus epidermidis
E. faecium 700221 (VRE) = assay: as above; assay type: cell-based, Enterococcus faecium; conditions: Enterococcus faecium, VRE
MRSA BAA-44 = assay: MIC assay (broth microdilution, CLSI); conditions: Staphylococcus aureus, read-out: MIC, MRSA BAA-44
A. baumannii 19606 = assay: MIC assay (broth microdilution, CLSI); assay type: cell-based, Acinetobacter baumannii; conditions: Acinetobacter baumannii, 19606; read-out: A. baumannii 19606 MIC
P. aeruginosa (PAO1) = assay: MIC assay (broth microdilution, CLSI); assay type: cell-based; conditions: Pseudomonas aeruginosa, PAO1; read-out: PAO1 MIC
K. pneumoniae 13883 = assay: MIC assay (broth microdilution, CLSI); assay type: cell-based, Klebsiella pneumoniae; conditions: Klebsiella pneumoniae, 13883; read-out: K. pneumoniae 13883 MIC
E. coli UAEC-1 = assay: MIC assay (broth microdilution, CLSI); assay type: cell-based; conditions: Escherichia coli, UAEC1; read-out: E. coli UAEC-1 MIC
MRSA BAA-1707 = assay: MIC assay (broth microdilution, CLSI); conditions: Staphylococcus aureus, read-out: MIC, MRSA BAA-1707
[8] = Table 7, a midpoint of 2-fold range, b lowest concentration tested
[9] = Table 2A, read-out: MIC, Staphylococcus epidermidis (ATCC 12228)
[10] = Table 7, b lowest concentration tested, read-out: MIC, S. epidermidis 12228
[11] = Table 2A, read-out: MIC, Staphylococcus epidermidis (ATCC 35984)
[12] = Table 7, read-out: MIC, MRSE 35984
[13] = Enterococcus faecium, Table 2A, read-out: MIC, Enterococcus faecium (ATCC 700221)
[14] = Table 7, b lowest concentration tested, read-out: MIC, VRE 700221
[15] = Table 8, a/b 2-/4-fold range in independent experiments, read-out: MRSA-2 MBC

SMILES	MIC ([1]; Table 2A) [µM]	MIC [1, 8] [µM]	MIC [3, 9] [µM]	MIC [3, 10] [µM]	MIC [4, 11] [µM]	MIC [4, 12] [µM]	MIC [5, 13] [µM]	MIC [5, 14] [µM]	IC50 at 24 h (in vitro) [µM]	% Hemolysis (200 μM) (human red blood cells) [%]	% Hemolysis at 200 μM (human red blood cells) [%]	MBC ([6]; Table 4, read-out: MBC, MRSA-2) [µM]	MBC [6, 15] [µM]	melting point [°C]	MIC (MRSA BAA-44) [µM]	MIC (A. baumannii 19606) [µM]	MIC (P. aeruginosa (PAO1)) [µM]	MIC (K. pneumoniae 13883) [µM]	MIC (E. coli UAEC-1) [µM]	other results
Oc1c(Cl)cc(Br)c2nc3cc(Br)c(Br)cc3nc12 [Compound 15, 4,7,8-Tribromo-2-chloro-1-hydroxyphenazine]	12.5 (≈ 5.84 µg/mL)	12.5 (≈ 5.84 µg/mL)	0.05 to 0.1 (≈ 0.0234 to 0.0467 µg/mL)	0.08 (≈ 0.0374 µg/mL)	0.2 to 0.39 (≈ 0.0935 to 0.182 µg/mL)	0.3 to 0.59 (≈ 0.14 to 0.276 µg/mL)	0.39 (≈ 0.182 µg/mL)	0.39 (≈ 0.182 µg/mL)	> 100	2.1	2.1	25 (≈ 11.7 µg/mL)	25 (≈ 11.7 µg/mL)	242 to 244	25 (≈ 11.7 µg/mL)					MIC [2]: 6.25 µM (≈ 2.92 µg/mL); MIC, MRSE 35984 ([4]; Table 7): 0.30^a μM; IC50 (HeLa cells): > 100 µM; MBC ([7]; Table 4, read-out: MBC, Staphylococcus epidermidis (ATCC 35984)): 1.56 µM (≈ 0.729 µg/mL); MBC ([7]; Table 8, read-out: MRSE 35984 MBC): 1.56 µM (≈ 0.729 µg/mL); MBEC, Staphylococcus epidermidis (ATCC 35984) ([7]; Table 4): 3.13 µM; MIC (MRSA-2; MRSA-2, 200 μM copper(II), read-out: MIC with Cu^2+): > 100 µM; MIC (MRSA-2; MRSA-2, 1 mM Tiron, read-out: MIC with Tiron): 0.2 µM; MIC (MRSA-2; MRSA-2, no additive (Table 9), read-out: MIC): 3.13 µM; MIC (S. epidermidis 12228; S. epidermidis 12228, 200 μM CuSO4, read-out: MIC with Cu^2+): 50 µM; MIC (S. epidermidis 12228; S. epidermidis 12228, 1 mM Tiron, read-out: MIC with Tiron): 0.1 µM; MIC (S. epidermidis 12228; S. epidermidis 12228, no additive, read-out: MIC): 0.1 µM; MIC (E. faecium 700221 (VRE); E. faecium 700221, 200 μM CuSO4, read-out: MIC with Cu^2+): 12.5 µM; MIC (E. faecium 700221 (VRE); E. faecium 700221, 1 mM Tiron, read-out: MIC with Tiron): 0.78 µM; MIC (E. faecium 700221 (VRE); E. faecium 700221, no additive, read-out: MIC): 0.78 µM
COc1cccc2nc3cc(Cl)c(Cl)cc3nc12 [Compound 20, 7,8-Dichloro-1-methoxyphenazine]	> 100	> 100	> 100	> 100	> 100	> 100	> 100	> 100		1.5						> 100	> 100	> 100	> 100	
Oc1cccc2nc3cc(Cl)c(Cl)cc3nc12 [Compound 21]	> 100	> 100	> 100	> 100	> 100	> 100	> 100	> 100		≤1						> 100	> 100	> 100	> 100	
C=CCc1cc(Br)c2nc3cc(Br)c(Br)cc3nc2c1O [Compound 24, 2-Allyl-4,7,8-tribromo-1-hydroxyphenazine]		> 100		> 100				> 100						187 to 189						
Oc1c(Br)cc(Br)c2nccnc12 [Compound 25]	25 (≈ 7.6 µg/mL)	25 (≈ 7.6 µg/mL)	12.5 to 25 (≈ 3.8 to 7.6 µg/mL)	18.8 (≈ 5.71 µg/mL)	12.5 to 25 (≈ 3.8 to 7.6 µg/mL)	18.8 (≈ 5.71 µg/mL)	100 (≈ 30.4 µg/mL)	100 (≈ 30.4 µg/mL)	> 100	1.8	1.8	1500 (≈ 456 µg/mL)	1500 (≈ 456 µg/mL)		12.5 (≈ 3.8 µg/mL)	6.25 (≈ 1.9 µg/mL)	> 100		12.5 (≈ 3.8 µg/mL)	MIC (MRSA BAA-1707): 6.25 µM (≈ 1.9 µg/mL)
